Positions count from the first letter of the chain named.
Key:
Assay type in all cases: biochemical
[1] = target: T1, alcohol dehydrogenase KpADH mutant M3 (Y127M; parent SEQ ID No. 1) (Vanderwaltozyma polyspora, UniProt A7TM80, Y127M); assay: Kinetic analysis of KpADH mutant M3 toward diol co-substrates; details: for catalytic efficiency kcat/Km, times that of wild-type KpADH: mutant M3 relative to wild-type KpADH
T1 sequence (A7TM80 1-342 Y127M): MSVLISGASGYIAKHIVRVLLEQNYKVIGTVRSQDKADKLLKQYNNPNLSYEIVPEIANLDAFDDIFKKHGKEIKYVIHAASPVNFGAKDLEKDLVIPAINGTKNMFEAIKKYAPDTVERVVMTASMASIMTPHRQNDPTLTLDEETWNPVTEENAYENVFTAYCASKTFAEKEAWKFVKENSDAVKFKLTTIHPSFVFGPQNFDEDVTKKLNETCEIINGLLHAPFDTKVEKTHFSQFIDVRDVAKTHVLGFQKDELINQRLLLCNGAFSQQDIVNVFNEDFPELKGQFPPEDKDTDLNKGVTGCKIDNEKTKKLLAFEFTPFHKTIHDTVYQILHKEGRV
Method: M3 is obtained by mutating tyrosine at position 127 into methionine in alcohol dehydrogenase having an original amino acid sequence as set forth in SEQ ID No. 1;
(§1) Changes in absorbance at 340 nm are measured.
(§2) The enzyme activity is calculated using the following formula: Enzyme activity (U)=EW×V×10^3/(6220×I);
(§3) In the formula, EW is the change in absorbance at 340 nm in 1 min; V is the volume of the reaction solution in mL; 6220 is the molar extinction coefficient of NAD(P)H in L/(mol·cm); I is optical distance in cm.
(§4) One unit of activity (U) corresponds to the amount of enzyme required for the catalytic oxidation of 1 μmol NADP^+ per minute under the above conditions.
(§5) Kinetic measurement is conducted according to the enzyme activity assay, with 10 μL of alcohol substrates of different concentrations, 1 mM NADP^+, 10 μL of enzymes of appropriate concentrations, 170 μL of glycine-sodium hydroxide buffer at pH 9.5, with each sample in triplicate. […] The calculation formulas are as follows: […]
(§6) The Vmax and Km values can be calculated from the intercepts of the double reciprocal plot on the X and Y axes;
(§7) The kcat value can be further calculated according to the formula.
(§8) The activity of KpADH under different substrate concentrations and cofactor concentrations was measured, and a double reciprocal plot was made according to the reciprocals of the activity and substrate concentration. The kinetic parameters were calculated.
(§9) The activity of KpADH under different substrate concentrations and cofactor concentrations was measured, and a double reciprocal plots were made according to the reciprocals of the activity and substrate concentration. The kinetic parameters were calculated.

[2] = target: T2, alcohol dehydrogenase KpADH mutant M5 (V84I/Y127M; parent SEQ ID No. 1) (Vanderwaltozyma polyspora, UniProt A7TM80, V84I/Y127M); assay: Kinetic analysis of KpADH mutant M5 toward diol co-substrates; details: mutant M5 relative to wild-type KpADH
T2 sequence (A7TM80 1-342 V84I/Y127M): T1 sequence (A7TM80 1-342 Y127M) with V84I
Method: the M5 is obtained by mutating valine at position 84 into isoleucine and tyrosine at position 127 into methionine in alcohol dehydrogenase having an original amino acid sequence as set forth in SEQ ID No. 1.
as §1, §2, §3, §4, §5, §6, §7, §8, §9

[3] = target: alcohol dehydrogenase KpADH, wild type, SEQ ID No. 1 (Vanderwaltozyma polyspora, UniProt A7TM80); assay: Kinetic analysis of wild-type KpADH toward diol co-substrates; details: 1 mM NADP+, Gly-NaOH pH 9.5, 30° C.
Method: as §1, §2, §3
(§10) One unit of activity (U) corresponds to the amount of enzyme required for the catalytic oxidation of 1 μmol NADP^+ per minute under the above conditions. […]
as §6, §7, §8, §9

[4] = target: T3, alcohol dehydrogenase KpADH mutant M2 (Y127C; parent SEQ ID No. 1) (Vanderwaltozyma polyspora, UniProt A7TM80, Y127C); assay: Kinetic analysis of KpADH mutant M2 toward diol co-substrates
T3 sequence (A7TM80 1-342 Y127C): T1 sequence (A7TM80 1-342 Y127M) with M127C
Method: M2 is obtained by mutating tyrosine at position 127 into cysteine in alcohol dehydrogenase having an original amino acid sequence as set forth in SEQ ID No. 1;
as §1, §2, §3, §10, §6, §7, §8, §9

[5] = target: T4, alcohol dehydrogenase KpADH mutant M1 (V84I; parent SEQ ID No. 1) (Vanderwaltozyma polyspora, UniProt A7TM80, V84I); assay: Kinetic analysis of KpADH mutant M1 toward diol co-substrates
T4 sequence (A7TM80 1-342 V84I): T1 sequence (A7TM80 1-342 Y127M) with V84I, M127Y
Method: M1 is obtained by mutating valine at position 84 into isoleucine in alcohol dehydrogenase having an original amino acid sequence as set forth in SEQ ID No. 1;
as §1, §2, §3, §4, §5, §6, §7, §8, §9

[6] = mutant M1, 1 mM NADP+, Gly-NaOH pH 9.5, 30° C.
[7] = mutant M1 relative to wild-type KpADH

| SMILES | catalytic efficiency kcat/Km, times that of wild-type KpADH [1] [times] | kcat/Km value, times that of wild-type KpADH [2] [times] | Km [3] [mM] | kcat [3] [s⁻¹] | catalytic rates kcat [4] [mM] | kcat [5, 6] [s⁻¹] | kcat/KM [5, 6] [M⁻¹ s⁻¹] | kcat value, times that of wild-type KpADH [5, 7] [times] | kcat/Km value, times that of wild-type KpADH [5, 7] [times] | catalytic rates kcat ([1]; mutant M3) [mM] |
| --- | --- | --- | --- | --- | --- | --- | --- | --- | --- | --- |
| OCCCCCO [1,5-pentanediol] | 4.36 | 3.14 |  |  |  |  |  |  |  |  |
| OCCCCCCO [1,6-hexanediol] | 2.69 | 5.3 | 18.5 ± 1.5 | 0.698 ± 0.015 |  |  |  |  |  |  |
| OCCCCO [1,4-butanediol] |  | 14.7 |  |  | 27.8 | 1.26 ± 0.0217 | 10.3 | 7.3 | 4.53 | 16.8 |
